# “Also recorded” adds a separate entry of the source.
# Tests used:
# post-stroke infections = experiment: Bacteriological analysis (CFU) of blood, lungs, liver and spleen after MCAO; assay type: in vivo, mice; settings: post-ischemic mice 24 h after MCAO; α-GalCer 2 μg/mouse i.v. 2 h after MCAO (FIGS. 44A-44D)
# Description: Mice underwent the mid-cerebral artery occlusion (MCAO) model of cerebral ischemia-reperfusion injury as previously described (Connolly, Jr. et al., 1996; Wong et al., 2008). Male mice of 8-12 weeks old were anesthetized by intraperitoneal injection of a mixture of 10 mg/kg xylazine hydrochloride (MTC Pharmaceuticals, Cambridge, ON) and 200 mg/kg ketamine hydrochloride (Rogar/STB, London, ON). Body temperature was maintained at 37° C. using a heating pad and temperature regulator with rectal probe. Mice were randomly divided into 2 groups: (i) sham-operated, and (ii) MCAO-operated. All surgical instruments were sterilized before the surgery. Before any incision, the area was swabbed with ethanol. To induce MCAO, a 10-mm incision was made on the right-hand side of the neck. Then, the common carotid artery, external carotid artery, and internal carotid artery were dissected free. The external carotid artery was further dissected distally, then coagulated and cut to serve as a stump. After applying temporary clamps at the common carotid artery and internal carotid artery, a monofilament with a silicon coating diameter of 0.21-0.23 mm (Doccol Corporation, Redlands, Calif., USA) was inserted into the stump of the external carotid artery. The monofilament then advanced a defined distance (12 mm) so that the distal end of the monofilament came to rest across the origin of the MCA. The stump of external carotid artery was tied off. The wound on the neck of the mouse was sutured and the mouse was then transferred onto a heat pad to maintain its body temperature at 37° C. After 30 mins of occlusion, the monofilament was withdrawn to allow reperfusion to occur. The animal then recovered from the anaesthesia. Rehydration of the mice was performed every 4 h with a subcutaneous injection of electrolytes and glucose. Food pellets softened with water were placed in the cage after surgery as the mice recovered, and access to water was provided. Sham-operated animals were subjected to the initial anaesthetic and neck incision only. The animals were then allowed to recover from anaesthetic. All animals were put onto a 37° C. heat pad, post-surgery, to recover from anaesthesia until euthanized.
# (§1) The anaesthetized mice from Example 1 were washed with 70% ethanol under sterile conditions. Blood was collected by cardiac puncture. The lungs, liver and spleen were removed after thoracotomy and homogenized. For determination of colony forming units (CFU), 10 μl of tissue homogenate or blood was serially diluted, plated onto brain heart infusion (BHI) agar plates supplemented with 5% sheep blood (Daylnn Biologicals, Alberta, Canada), incubated at 37° C. for 18 h, and bacterial colonies were counted.
# as §1, with “Example 7” for “Example 1”
# hepatic iNKT cells = experiment: Spinning disk confocal intravital microscopy of the liver: crawling behaviour of GFP+ (iNKT) cells; assay type: in vivo, mice; settings: Cxcr6gfp/+ mice without MCAO (FIGS. 31A, 31B)
# Description: Murine liver intravital microscopy was performed as taught by Wong et al. (1997, A minimal role for selectins in the recruitment of leukocytes into the inflamed liver microvasculature. J. Clin. Invest. 99: 2782). Briefly, the tail vein of the anesthetized mice was cannulated to administer fluorescently labeled antibodies and/or additional anesthetic as required. Body temperature was maintained at 37° C. using an infrared heat lamp. Mice were placed in a right lateral position on an adjustable microscope stage. A lateral abdominal incision along the costal margin to the midaxillary line was made to exteriorize the liver, and all exposed tissues were moistened with saline-soaked gauze to prevent dehydration.
# Cells were tracked using ImageJ software version 1.45 (NIH at http://rsb.info.nih.gov/ij/). Time-lapse videos exported from Volocity were imported as .mov file, and then converted to 8-bit grayscale. Fluorescent cells were adjusted using threshold control, and noise particles less than 2.0 pixels were removed by filter. Movement of cells was measured using manual tracking, and was calculated for each track using ImageJ output spreadsheets. The cell velocity was expressed in distance (μm) per time (min). 30-40 tracks from 10 mins videos of each animal in each experimental group were analyzed.
# Excised livers were prepared for in vivo microscopic observation. Briefly, the liver was placed on the pedestal of an inverted microscope and the liver surface was then covered with a small piece of saline-soaked KimWipe to hold the organ in position. The liver microvasculature was visualized using a spinning-disk confocal microscopy and images were acquired with an Olympus IX81 inverted microscope using a ×10/0.40 UplanFL N objective. The microscope was equipped with a confocal light path (WaveFx, Quorum, Guelph, ON, CA) based on a modified Yokogawa CSU-10 head (Yokogawa Electric Corporation, Tokyo, Japan). Cxcr6^gfp/+ mice were used to visualize hepatic iNKT cells. Laser excitation wavelengths (Cobolt, Stockholm, Sweden) were used in rapid succession and visualized with the appropriate long-pass filters (Semrock, Rochester, N.Y.). Typical exposure time for each excitation wavelength was 300 milli-seconds. A 512×512 pixel back-thinned electron-multiplying charge-coupled device camera (C9100-13, Hamamatsu, Bridgewater, N.J.) was used for fluorescence detection. Volocity Acquisition software (Improvision) was used to drive the confocal microscope. […] Behaviors of iNKT cells in the hepatic microvasculature were assessed.
# Wildtype mice underwent the MCAO procedure as previously described in Example 1. […] The crawling behaviours of crawling GFP+ cells in livers from sham-operated control mice and post-ischemic mice were observed and quantified using the methods disclosed in Example 2.
# IFNγ = experiment: Serum cytokine IFNγ level in peripheral blood (Luminex); assay type: in vivo; settings: post-ischemic mice 24 h after MCAO; α-GalCer 2 μg/mouse i.v. 2 h after MCAO (FIG. 43A)
# Description: Levels of the cytokine IFNγ present in peripheral blood were determined by collecting blood samples by cardiac puncture, which were then allowed to clot at room temperature for at least 30 mins. The samples were then centrifuged at 400×g for 10 mins for the retrieval of serum. The serum samples were analyzed for the cytokine IFNγ by using a multiplex mouse cytokine/chemokine kit, and a Luminex 200 apparatus according to manufacturer's instructions. The data were analyzed with the StarStation V.2.3 software from Applied Cytometry Systems (UK).
smiles,measurement,setting,value
"CCCCCCCCCCCCCCCCCCCCCCCCCCC(=O)N[C@@H](COC1OC(CO)C(O)C(O)C1O)[C@H](O)[C@H](O)CCCCCCCCCCCCCC (stereo partly drawn) [α-GalCer, α-galactosylceramide]","infections (bacterial loads in peripheral blood, lungs, livers, spleens)",post-stroke infections,reduced; also recorded: suppressed the occurrence of microbial infections
same,crawling behaviour of liver iNKT cells after administration of the activator,hepatic iNKT cells,cessation of iNKTcells
same,systemic levels of endogenous IFN-γ,IFNγ,significantly increased
